Results published in patent US20250134952A1, “METHODS FOR IMPROVING THE EFFICACY OF HDAC INHIBITOR THERAPY AND PREDICTING THE RESPONSE TO TREATMENT WITH HDAC INHIBITOR” (INSTITUT NATIONAL DE LA SANTÉ ET DE LA RECHERCHE MÉDICALE, priority 2021, published 2025).

Columns and labels:
GADD45a = GADD45a expression by real-time PCR; type: cell-based, human; conditions: 100 nM TSA, 24 h
Description: (§1) (A) Representative confocal sections of MCF7shctrl and shTau cells untreated or treated with 100 nM TSA for 24 h. […] (B) Quantification of HP1α clusters per nuclei visualized as described previously and realized on three independent experiments. (C) GADD45a and (D) p21 (CDKN1a) expression in MCF7shctrl and shTau cells untreated or treated with 100 nM TSA for 24 h were analyzed by real-time PCR and normalized to RPLO. Results are expressed, relative to the basal activity set to 1, as the mean±SD of three independent assays. (E) Tau tethering prevents adjacent reporter gene activity induced by TSA. GAL4UAS responsive luciferase reporter Hela stable cell line was transfected with GAL4DBD (GAL4) or GAL4DBD-Tau4R and then, 24 h later, treated with TSA (600 nM) for 24 h. The luciferase activity was determined as described in the Materials and Methods. (F) Ectopic Tau4R expression prevents adjacent reporter gene activity induced by TSA. […] The luciferase activity was determined as described in the Materials and Methods. […]
(§2) Total RNA was prepared using RNeasyMinikit (Qiagen). Reverse transcription (RT) was performed using random hexamers as recommended by the manufacturer (Applied Biosystems). cDNAs were analyzed by PCR amplification using the TaqMan PCR master mix (Applied Biosystems) and a mix of RPLO primers and probes. […]

p21 (CDKN1a) = p21 (CDKN1a) expression by real-time PCR; type: cell-based, human; conditions: 100 nM TSA, 24 h
Description: as §1, §2

[1] = test system: GAL4UAS responsive luciferase reporter Hela stable cell line; experiment: GAL4UAS responsive luciferase reporter assay; type: cell-based; conditions: for reduction of luciferase activity by Tau4R overexpression: wild-type Tau4R transfected
Description: (A) Representative confocal sections of MCF7shctrl and shTau cells untreated or treated with 100 nM TSA for 24 h. […] (B) Quantification of HP1α clusters per nuclei visualized as described previously and realized on three independent experiments. (C) GADD45a and (D) p21 (CDKN1a) expression in MCF7shctrl and shTau cells untreated or treated with 100 nM TSA for 24 h were analyzed by real-time PCR and normalized to RPLO. Results are expressed, relative to the basal activity set to 1, as the mean±SD of three independent assays. (E) Tau tethering prevents adjacent reporter gene activity induced by TSA. GAL4UAS responsive luciferase reporter Hela stable cell line was transfected with GAL4DBD (GAL4) or GAL4DBD-Tau4R and then, 24 h later, treated with TSA (600 nM) for 24 h. The luciferase activity was determined as described in the Materials and Methods. (F) Ectopic Tau4R expression prevents adjacent reporter gene activity induced by TSA. The GAL4UAS responsive luciferase reporter Hela stable cell line was transfected with a plasmid encoding Tau4R for 24 h. Then, cells were treated with an increasing concentration of TSA, as indicated for 24 h. The luciferase activity was determined as described in the Materials and Methods. Data are mean±SD **P<0.01***P<0.001 vs. control.
SH-SY5Y human neuroblastoma cells expressing Tau4R tagged with the streptavidin-binding peptide (SBP) (referred as SH-SY5Y-(SBP)Tau4R) (Chauderlier et al., 2018), SH-SY5Y-Tet-on-Tau4R, Hela cells, MCF7 and MDA-MB-231 were cultured in Dulbecco's Modified Eagle's Medium with 10% fetal bovine serum, 2 mM L-glutamine and 50 U/ml penicillin/streptomycin (Gibco) at 37° C. in 5% CO2 humidified air. Transient and stable transfections experiments were performed using the lipofectamine 3000 reagent (Invitrogen). Transient luciferase assays were performed with the dual-luciferase assay system (Promega). For stable clones, luciferase activities were measured using the luciferase assay system (Promega) and normalized against protein concentration. To isolate stably transfected clones, Hela cells were transfected with the pGL4.31[luc2P/GAL4 UAS/Hygro](referred to as the GAL4UAS stable Hela cell line) and selected with hygromycin (200 μg/ml). Of 6 clones tested for reporter activity, one clone was chosen for further studies. MCF7 and MDA-MB-231 cells were transfected with short hairpin Tau or RNA Ctrl vectors and selected with puromycin ([…]). Clones were isolated and tested for Tau expression.
To directly probe how Tau prevents TSA-induced chromatin remodeling and gene expression, we next used Hela cells as they lack endogenous Tau. First, we generated a stable GAL4UAS-responsive luciferase reporter Hela clone that we subsequently selected for trichostatin-induced luciferase activity. In our preliminary experiments we found the lowest dose of TSA inducing maximal luciferase activity was 600 nM and we used this concentration in the following experiments. In addition, by performing salt extraction on nuclei, we found only Tau4R isoforms were tightly bound to chromatin and could potentially impact directly on chromatin structure (data not shown). We therefore targeted Tau4R to UAS responsive elements by fusing Tau4R to the heterologous DNA-binding domain GAL4 and transfected this plasmid into Hela stable clone. […] We next wondered if this effect was due to the tethering of Tau4R to the promoter or whether this was independent of Tau4R fusion to GAL4. […]

[2] = MCF7shctrl cells, relative to basal
[3] = cells with reduced Tau expression (MCF7shTau) vs MCF7shctrl

CC(/C=C/C(=O)NO)=C\[C@@H](C)C(=O)c1ccc(N(C)C)cc1 [TSA, 2,4-Heptadienamide, 7-[4-(dimethylamino)phenyl]-N-hydroxy-4,6-dimethyl-7-oxo-, (2E,4E,6R)-]
GADD45a induction (RT-qPCR) (GADD45a; [2]): 3 fold | GADD45a upregulation by TSA (GADD45a; [3]): exacerbated | p21 induction (RT-qPCR) (p21 (CDKN1a); [2]): 2.5 fold | p21 upregulation by TSA (p21 (CDKN1a); [3]): exacerbated | reduction of luciferase activity by Tau4R overexpression ([1]; 100 nM TSA, 24 h): around 50% | reduction of luciferase activity by Tau4R overexpression ([1]; 300 nM TSA, 24 h): around 50% | reduction of luciferase activity by Tau4R overexpression ([1]; 600 nM TSA, 24 h): no reduction | reduction of TSA-induced luciferase activity in the presence of GAL-Tau4R ([1]; TSA 600 nM, 24 h, GAL4DBD-Tau4R transfected): 50% | lowest dose of TSA inducing maximal luciferase activity ([1]; preliminary experiments, Hela stable clone): 600 nM
